Data taken from patent US10112929B2, “Lactams as inhibitors of rock” (BRISTOL-MYERS SQUIBB COMPANY, priority 2015, dated 2018).

Molecular target: ROCK2 (Homo sapiens (Human), UniProt O75116)
Experiment: biochemical
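Note: rho kinase enzyme reaction halted with EDTA, phospho- and non-phospho peptide separated for read-out, kinase activity inhibition derived across a dose-response series, DMSO under 2%.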

Sequence of ROCK2 (O75116 whole entry, species assumed): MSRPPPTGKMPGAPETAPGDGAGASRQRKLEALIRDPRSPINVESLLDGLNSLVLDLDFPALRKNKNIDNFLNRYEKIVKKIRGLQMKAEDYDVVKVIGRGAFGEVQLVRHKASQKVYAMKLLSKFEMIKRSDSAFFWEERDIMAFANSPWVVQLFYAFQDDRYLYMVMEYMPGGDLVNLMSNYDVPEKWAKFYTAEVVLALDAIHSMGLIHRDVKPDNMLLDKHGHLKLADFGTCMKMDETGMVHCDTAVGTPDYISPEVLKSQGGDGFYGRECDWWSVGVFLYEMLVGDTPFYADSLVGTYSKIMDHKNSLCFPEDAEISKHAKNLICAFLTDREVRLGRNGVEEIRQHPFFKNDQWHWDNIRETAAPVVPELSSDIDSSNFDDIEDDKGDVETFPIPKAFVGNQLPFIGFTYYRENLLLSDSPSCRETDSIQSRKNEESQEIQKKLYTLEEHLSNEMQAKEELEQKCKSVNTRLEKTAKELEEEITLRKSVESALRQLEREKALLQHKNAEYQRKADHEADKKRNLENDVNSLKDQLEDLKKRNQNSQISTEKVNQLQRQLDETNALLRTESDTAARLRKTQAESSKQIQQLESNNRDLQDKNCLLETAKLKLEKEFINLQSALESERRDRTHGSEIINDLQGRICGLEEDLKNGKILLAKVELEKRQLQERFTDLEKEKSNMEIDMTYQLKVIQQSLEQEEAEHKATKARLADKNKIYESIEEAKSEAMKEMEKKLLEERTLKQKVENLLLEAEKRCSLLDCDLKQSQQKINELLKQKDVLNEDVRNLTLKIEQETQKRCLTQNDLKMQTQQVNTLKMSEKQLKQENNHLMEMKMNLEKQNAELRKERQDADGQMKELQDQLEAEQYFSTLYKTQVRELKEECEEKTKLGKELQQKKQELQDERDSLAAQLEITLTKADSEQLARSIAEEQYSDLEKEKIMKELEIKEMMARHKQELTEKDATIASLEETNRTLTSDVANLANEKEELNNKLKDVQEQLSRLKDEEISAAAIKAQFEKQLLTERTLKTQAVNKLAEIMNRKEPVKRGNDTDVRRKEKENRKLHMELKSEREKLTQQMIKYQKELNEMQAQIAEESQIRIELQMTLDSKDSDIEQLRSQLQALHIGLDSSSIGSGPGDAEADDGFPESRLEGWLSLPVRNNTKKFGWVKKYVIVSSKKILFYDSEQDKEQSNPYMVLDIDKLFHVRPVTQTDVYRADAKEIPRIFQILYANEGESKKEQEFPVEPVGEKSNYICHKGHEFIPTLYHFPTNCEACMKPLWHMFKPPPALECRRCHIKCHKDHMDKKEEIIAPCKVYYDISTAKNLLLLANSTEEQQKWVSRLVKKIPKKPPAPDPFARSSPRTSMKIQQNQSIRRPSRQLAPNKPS

SMILES | IC50 [nM]
COc1nc(N2CCC(Nc3cccc(OC(F)F)c3)C2=O)ccc1-c1cn[nH]c1 (single isomer, unassigned) [Example 220, 3-((3-(difluoromethoxy)phenyl)amino)-1-(6-methoxy-5-(1H-pyrazol-4-yl)pyridin-2-yl)pyrrolidin-2-one] | < 10
CNc1nc(N2CCC(Nc3cccc(OC)c3)C2=O)ccc1-c1cn[nH]c1 (single isomer, unassigned) [Example 253, 3-((3-methoxyphenyl)amino)-1-(6-(methylamino)-5-(1H-pyrazol-4-yl)pyridin-2-yl)pyrrolidin-2-one] | 10 to 100
O=C1[C@H](N2CCc3ccccc32)CCN1c1ccc(-c2cn[nH]c2)cc1 [Example 393, (R)-1-(4-(1H-pyrazol-4-yl)phenyl)-3-(indolin-1-yl)pyrrolidin-2-one] | 10 to 100
COc1nc(N2CCC(Nc3cccc(C(N)=O)c3)C2=O)ccc1-c1cn[nH]c1 (racemic) [Example 258, 3-((1-(6-methoxy-5-(1H-pyrazol-4-yl)pyridin-2-yl)-2-oxopyrrolidin-3-yl)amino)benzamide] | < 10
COc1nc(N2CCC(Nc3cccc(OCC4CC4)c3)C2=O)ccc1-c1cn[nH]c1 (single isomer, unassigned) [Example 214, 3-((3-(cyclopropylmethoxy)phenyl)amino)-1-(6-methoxy-5-(1H-pyrazol-4-yl)pyridin-2-yl)pyrrolidin-2-one] | < 10
CCc1cc(N2CCC(Nc3cccc(OCC4CC4)c3)C2=O)ccc1-c1cn[nH]c1 (single isomer, unassigned) [Example 247, 3-((3-(cyclopropylmethoxy)phenyl)amino)-1-(3-ethyl-4-(1H-pyrazol-4-yl)phenyl)pyrrolidin-2-one] | 10 to 100
CCc1cc(N2CCC(Nc3cccc(OC)c3)C2=O)ncc1-c1cn[nH]c1 (single isomer, unassigned) [Example 203, 1-(4-ethyl-5-(1H-pyrazol-4-yl)pyridin-2-yl)-3-((3-methoxyphenyl)amino) pyrrolidin-2-one] | 100 to 2200
COc1cc(N2CCC(Nc3cccc(OC(F)(F)F)c3)C2=O)ccc1-c1cn[nH]c1 (stereo not drawn) [Example 70, 1-(3-methoxy-4-(1H-pyrazol-4-yl)phenyl)-3-((3-(trifluoromethoxy)phenyl)amino)pyrrolidin-2-one] | 100 to 2200
COc1cc(N2CCC(Nc3ccccc3)C2=O)ccc1-c1cn[nH]c1 (stereo not drawn) [Example 67, 1-(3-methoxy-4-(1H-pyrazol-4-yl)phenyl)-3-(phenylamino)pyrrolidin-2-one] | < 10
COc1cc(F)cc(OC2CCN(c3ccc(-c4cn[nH]c4)cc3)C2=O)c1 (stereo not drawn) [Example 112, 1-(4-(1H-pyrazol-4-yl)phenyl)-3-(3-fluoro-5-methoxyphenoxy)pyrrolidin-2-one] | 100 to 2200
COc1cccc(NC2CCN(c3ccc(-c4cn[nH]c4)cc3)C2=O)n1 (racemic) [Example 223, 1-(4-(1H-pyrazol-4-yl)phenyl)-3-((6-methoxypyridin-2-yl)amino)pyrrolidin-2-one] | 10 to 100
O=C1C(Nc2cccc(F)c2)CCN1c1ccc(-c2cn[nH]c2)cc1 (stereo not drawn) [Example 62, 1-(4-(1H-pyrazol-4-yl)phenyl)-3-((3-fluorophenyl)amino)pyrrolidin-2-one] | < 10
COc1nc(N2CCC(Nc3cccc(NC(C)=O)c3)C2=O)ccc1-c1cn[nH]c1 (racemic) [Example 260, N-(3-((1-(6-methoxy-5-(1H-pyrazol-4-yl)pyridin-2-yl)-2-oxopyrrolidin-3-yl)amino)phenyl)acetamide] | < 10
COc1ccc(F)c(NC2CCN(c3ccc(-c4cn[nH]c4)cc3F)C2=O)c1 (single isomer, unassigned) [Example 341, 1-(2-fluoro-4-(1H-pyrazol-4-yl)phenyl)-3-((2-fluoro-5-methoxyphenyl)amino) pyrrolidin-2-one] | 10 to 100
COc1nc(N2CCC(N3CC(C)OC(C)C3)C2=O)ccc1-c1cn[nH]c1 (racemic) [Example 275, 3-(2,6-dimethylmorpholino)-1-(6-methoxy-5-(1H-pyrazol-4-yl)pyridin-2-yl)pyrrolidin-2-one] | 100 to 2200
O=C1C(Nc2ccccc2)CCN1c1ccc(-c2cn[nH]c2)c(F)c1 (single isomer, unassigned) [Example 43, 1-(3-fluoro-4-(1H-pyrazol-4-yl)phenyl)-3-(phenylamino)pyrrolidin-2-one] | < 10
O=C1C(Nc2cccc(OC(F)F)c2)CCN1c1ccc(-c2cn[nH]c2)cc1 (single isomer, unassigned) [Example 231, 1-(4-(1H-pyrazol-4-yl)phenyl)-3-((3-(difluoromethoxy)phenyl)amino) pyrrolidin-2-one] | 10 to 100
COc1nc(N2CCC(Nc3cccc(OCC4CC4)c3)C2=O)ccc1-c1cn[nH]c1 (racemic) [Example 205, 3-((3-(cyclopropylmethoxy)phenyl)amino)-1-(6-methoxy-5-(1H-pyrazol-4-yl)pyridin-2-yl)pyrrolidin-2-one] | < 10
COc1nc(N2CCC(N3CCOCC3)C2=O)ccc1-c1cn[nH]c1 (racemic) [Example 273, 1-(6-methoxy-5-(1H-pyrazol-4-yl)pyridin-2-yl)-3-morpholinopyrrolidin-2-one] | 10 to 100

Next, values leading:

IC50 [nM] | SMILES
< 10 | COc1cc(F)cc(NC2CCN(c3ccc(-c4cn[nH]c4)c(C)n3)C2=O)c1 (single isomer, unassigned) [Example 193, 3-((3-fluoro-5-methoxyphenyl)amino)-1-(6-methyl-5-(1H-pyrazol-4-yl)pyridin-2-yl)pyrrolidin-2-one]
< 10 | COc1cccc(NC2CCN(c3ccc(-c4cn[nH]c4)c(OC)c3)C2=O)c1 (stereo not drawn) [Example 68, 1-(3-methoxy-4-(1H-pyrazol-4-yl)phenyl)-3-((3-methoxyphenyl)amino)pyrrolidin-2-one]
< 10 | COc1cccc(NC2CCN(c3ccc(-c4cn[nH]c4)c(Cl)c3)C2=O)c1 (single isomer, unassigned) [Example 164, 1-(3-chloro-4-(1H-pyrazo1-4-yl)phenyl)-3 ((3-methoxyphenyl)amino)pyrrolidin-2-one]
< 10 | CCc1cc(N2CCC(Nc3cc(F)cc(OC)c3)C2=O)ccc1-c1cn[nH]c1 (single isomer, unassigned) [Example 246, 1-(3-ethyl-4-(1H-pyrazol-4-yl)phenyl)-3-((3-fluoro-5-methoxyphenyl)amino) pyrrolidin-2-one]
100 to 2200 | CCOc1cc(N2CCC(Nc3cc(OC)ccc3F)C2=O)ccc1-c1cn[nH]c1 (single isomer, unassigned) [Example 40, 1-(3-ethoxy-4-(1H-pyrazol-4-yl)phenyl)-3-((2-fluoro-5-methoxyphenyl)amino)pyrrolidin-2-one]
< 10 | COc1cccc(NC2CCN(c3ccc(-c4cn[nH]c4)c(OC)c3)C2=O)c1 (single isomer, unassigned) [Example 74, 1-(3-methoxy-4-(1H-pyrazol-4-yl)phenyl)-3-((3-methoxyphenyl)amino)pyrrolidin-2-one]
< 10 | COc1cc(N2CCC(Nc3cccc(OC(F)F)c3)C2=O)ccc1-c1cn[nH]c1 (stereo not drawn) [Example 66, 3-((3-(Difluoromethoxy)phenyl)amino)-1-(3-methoxy-4-(1H-pyrazol-4-yl)phenyl)pyrrolidin-2-one]
10 to 100 | COc1cc(F)cc(NC2CCN(c3ccc(-c4cn[nH]c4)c(C(F)F)c3)C2=O)c1 (single isomer, unassigned) [Example 178, 1-(3-(difluoromethyl)-4-(1H-pyrazol-4-yl)phenyl)-3-((3-fluoro-5-methoxyphenyl)amino)pyrrolidin-2-one]
100 to 2200 | COc1cc(F)cc(NC2CCN(c3ccc(-c4cn[nH]c4)cc3Cl)C2=O)c1 (single isomer, unassigned) [Example 168, 1-(2-chloro-4-(1H-pyrazol-4-yl)phenyl)-3 ((3-fluoro-5-methoxyphenyl)amino) pyrrolidin-2-one]
< 10 | COc1cc(F)cc(NC2CCN(c3ccc(-c4cn[nH]c4)nc3)C2=O)c1 (single isomer, unassigned) [Example 302, 1-(6-(1H-pyrazol-4-yl)pyridin-3-yl)-3-((3-fluoro-5-methoxyphenyl)amino)pyrrolidin-2-one]
100 to 2200 | COCc1cc(N2CCC(Nc3cc(F)cc(OC)c3)C2=O)ccc1-c1cn[nH]c1 (single isomer, unassigned) [Example 185, 3-((3-fluoro-5-methoxyphenyl)amino)-1-(3-(methoxymethyl)-4-(1H-pyrazol-4-yl)phenyl)pyrrolidin-2-one]
< 10 | CCc1nc(N2CCC(Nc3cc(F)cc(OC)c3)C2=O)ccc1-c1cn[nH]c1 (single isomer, unassigned) [Example 316, 1-(6-ethyl-5-(1H-pyrazol-4-yl)pyridin-2-yl)-3-((3-fluoro-5-methoxyphenyl)amino) pyrrolidin-2-one]
< 10 | COc1cc(NC2CCN(c3ccc(-c4cn[nH]c4)c(OC)c3)C2=O)ccc1F (single isomer, unassigned) [Example 155, 3-((4-fluoro-3-methoxyphenyl)amino)-1-(3-methoxy-4-(1H-pyrazol-4-yl)phenyl) pyrrolidin-2-one]
10 to 100 | COc1cccc(NC2CCN(c3ccc(-c4cn[nH]c4)c(Cl)c3)C2=O)c1 (single isomer, unassigned) [Example 165, 1-(3-chloro-4-(1H-pyrazo1-4-yl)phenyl)-3 ((3-methoxyphenyl)amino)pyrrolidin-2-one]
10 to 100 | COc1cc(F)cc(NC2CCN(c3ccc(-c4cn[nH]c4)c(C#N)c3)C2=O)c1 (single isomer, unassigned) [Example 375, 5-(3-((3-fluoro-5-methoxyphenyl)amino)-2-oxopyrrolidin-1-yl)-2-(1H-pyrazol-4-yl)benzonitrile]
10 to 100 | COc1ccc(F)c(NC2CCN(c3ccc(-c4cn[nH]c4)c(F)c3)C2=O)c1 (single isomer, unassigned) [Example 334, 1-(3-fluoro-4-(1H-pyrazol-4-yl)phenyl)-3-((2-fluoro-5-methoxyphenyl)amino) pyrrolidin-2-one]
100 to 2200 | COc1cccc(NC2CCN(c3ccc(-c4cn[nH]c4)c(C(N)=O)c3)C2=O)c1 (single isomer, unassigned) [Example 130, 5-(3-((3-Methoxyphenyl)amino)-2-oxopyrrolidin-1-yl)-2-(1H-pyrazol-4-yl)benzamide]
